Test results: US12534439B2, “Xanthohumol derivatives and methods for making and using” (Oregon State University, priority 2021, dated 2026)

Tested on: HFD-fed C57BL/6J mice
Test: Untargeted cortex LC-MS metabolomics
Assay type: in vivo
Details: cortex of HFD-fed mice
Experimental: Plasma and Cortex LC-MS Metabolomics. The left and right sides of the cortex were pooled and ground using liquid nitrogen. Cortex samples (approximately 30 mg) were extracted as previously described with slight modifications. Tissues were homogenized with 600 μL of cold 80% acetonitrile with 0.1% formic acid containing 0.2 μg/mL of dopamine-d4 (Sigma-Aldrich, St Louis, MO, USA) and 0.2 μg/mL of chlorpropamide (Sigma-Aldrich, St Louis, MO, USA) using a counter-top bullet blender for 2 min and centrifuged at 20 000 rpm for 10 minutes. Supernatants were transferred to high performance liquid chromatography (HPLC) vials for analysis.
LC-high-resolution mass spectrometry/MS. Data dependent acquisition in both negative and positive ion mode was conducted using a Shimadzu Nexera UPLC system coupled to an AB SCIEX TripleTOF 5600 mass spectrometer (AB SCIEX, Toronto, Canada). Chromatographic separation was conducted using an Inertsil Phenyl-3 column (4.6×150 mm, 100 Å, 5 μm; GL Sciences, Tokyo, Japan). Spray voltage was −4200 V for negative ion mode and 4500 V for positive ion mode acquisition. The injection volume was 3 μL. Metabolite identifications were performed using Progenesis QI software (V2.4.6911) with METLIN plugin V1.0.6499 (NonLinear Dynamics, United Kingdom). Progenesis QI was used for peak picking, retention time correction, data normalization, peak alignment, and metabolite annotations. Metabolites were detected in both ion modes; the one with the lowest coefficient of variation of the QC was kept.

COc1cc(O)c(CC=C(C)C)c(O)c1-c1cc(-c2ccc(O)cc2)n(C)n1 [XP, 4-(5-(4-hydroxyphenyl)-1-methyl-1H-pyrazol-3-yl)-5-methoxy-2-(3-methylbut-2-en-1-yl)benzene-1,3-diol]
Ion intensities, Mean: 1,2-DIPALMITOYL-SN-GLYCEROL: 1513.84 | Ion intensities, Mean: 1-Arachidonoyl-glycerophosphoinositol: 546.96 | Ion intensities, Mean: 1-Palmitoyl-2-linoleoyl PE: 1180.62 | Ion intensities, Mean: 2-Pyrrolidinone: 1222.06 | Ion intensities, Mean: 2′-DEOXYURIDINE 5′-MONOPHOSPHATE: 594.66 | Ion intensities, Mean: 3-Methyl-L-histidine: 518.49 | Ion intensities, Mean: 3-PHOSPHO-GLYCERIC ACID: 2370.20 | Ion intensities, Mean: 5-Acetylamino-6-amino-3-methyluracil: 52.73 | Ion intensities, Mean: 5-Methylcytidine: 9448.98 | Ion intensities, Mean: 12-HYDROXYDODECANOIC-ACID: 2251.29 | Ion intensities, Mean: 20-Hydroxy-PGE2: 7093.39 | Ion intensities, Mean: 27-Hydroxycholesterol: 20090.45 | Ion intensities, Mean: ADENOSINE: 49823.74 | Ion intensities, Mean: ADENOSINE 5′-DIPHOSPHORIBOSE: 4312.21 | Ion intensities, Mean: ADENOSINE 5′-MONOPHOSPHATE: 90459.20 | Ion intensities, Mean: ADENOSINE-5′-DIPHOSPHOGLUCOSE: 1755.31 | Ion intensities, Mean: ADP: 3426.97 | Ion intensities, Mean: AMINOADIPATE: 331.86 | Ion intensities, Mean: ASCORBATE: 1431.15 | Ion intensities, Mean: ASPARTATE: 1333.10 | Ion intensities, Mean: Acetylcarnitine: 12649.68 | Ion intensities, Mean: Acetylcholine: 1745.95 | Ion intensities, Mean: Adenine: 1949.85 | Ion intensities, Mean: Adenylosuccinate: 1016.78 | Ion intensities, Mean: Adenylsuccinic acid: 3152.34 | Ion intensities, Mean: Arachidonic acid: 20901.19 | Ion intensities, Mean: Arachidonic acid ethyl ester: 351.43 | Ion intensities, Mean: Arginine: 2112.34 | Ion intensities, Mean: Aspartic acid: 8729.17 | Ion intensities, Mean: BILIVERDIN: 167.09 | Ion intensities, Mean: CARNITINE: 14584.14 | Ion intensities, Mean: CDP-Ethanolamine: 571.19 | Ion intensities, Mean: CHENODEOXYCHOLATE: 5735.03 | Ion intensities, Mean: CITRATE: 1682.49 | Ion intensities, Mean: CMP: 688.26 | Ion intensities, Mean: Carnosine: 1422.99 | Ion intensities, Mean: Choline: 8899.36 | Ion intensities, Mean: Creatine: 89712.34 | Ion intensities, Mean: Cysteineglutathione disulfide: 1531.40 | Ion intensities, Mean: Cytidine: 846.95 | Ion intensities, Mean: Cytidine 2′,3′-cyclic phosphate: 356.88 | Ion intensities, Mean: Cytidine diphosphate choline (CDPcholine): 2658.54 | Ion intensities, Mean: D-GLUCOSE 6-PHOSPHATE: 138.50 | Ion intensities, Mean: D-Glucaro-1,4-lactone: 1887.47 | Ion intensities, Mean: D-RIBOSE 5-PHOSPHATE: 136.10 | Ion intensities, Mean: DESMOSTEROL: 15551.25 | Ion intensities, Mean: DIHYDROOROTATE: 91.24 | Ion intensities, Mean: Deoxycytidine: 665.81 | Ion intensities, Mean: Deoxyguanosine: 2401.12 | Ion intensities, Mean: Docosahexaenoic acid: 2873.42 | Ion intensities, Mean: Docosenamide: 20845.53 | Ion intensities, Mean: Dodecanedioic acid: 333.82 | Ion intensities, Mean: ERUCIC ACID: 98.90 | Ion intensities, Mean: ETHANOLAMINE PHOSPHATE: 441.02 | Ion intensities, Mean: Ergothioneine: 515.38 | Ion intensities, Mean: Ethyl nicotinate: 81.18 | Ion intensities, Mean: GLUTAMIC ACID: 9048.31 | Ion intensities, Mean: GLUTAMINE: 22688.89 | Ion intensities, Mean: GUANOSINE 5′-MONOPHOSPHATE: 4141.69 | Ion intensities, Mean: Glutamate: 53559.34 | Ion intensities, Mean: Glutathione: 232313.32 | Ion intensities, Mean: Glycerophosphocholine: 124857.55 | Ion intensities, Mean: Guanosine monophosphate: 845.86 | Ion intensities, Mean: HEPTADECANOATE: 23.50 | Ion intensities, Mean: HISTIDINE: 1129.76 | Ion intensities, Mean: Homocarnosine: 689.23 | Ion intensities, Mean: Homoserine: 1034.62 | Ion intensities, Mean: Hydroxybutyric acid: 2833.09 | Ion intensities, Mean: Hydroxyphenethylamine: 4074.28 | Ion intensities, Mean: Hypoxanthine: 88.42 | Ion intensities, Mean: Hypusine: 196.91 | Ion intensities, Mean: ISOCITRIC ACID: 2051.66 | Ion intensities, Mean: ISOLEUCINE: 1578.44 | Ion intensities, Mean: Indoleacetaldehyde: 523.18 | Ion intensities, Mean: Inosine: 1409.62 | Ion intensities, Mean: Inosine 5′-monophosphate (IMP): 5581.09 | Ion intensities, Mean: Isostearic acid: 1901.95 | Ion intensities, Mean: L-2-Amino-5-hydroxypentanoicacid: 2343.03 | Ion intensities, Mean: L-OLEOYL-RAC-GLYCEROL: 2628.37 | Ion intensities, Mean: LACTATE: 3144.80 | Ion intensities, Mean: LAUROYLCARNITINE: 277.93 | Ion intensities, Mean: LEUKOTRIENE B4: 30.73 | Ion intensities, Mean: LYSINE: 107.27 | Ion intensities, Mean: Lathosterol: 14569.93 | Ion intensities, Mean: Lipoamide: 114.97 | Ion intensities, Mean: MALATE: 1664.52 | Ion intensities, Mean: Methionine: 2031.63 | Ion intensities, Mean: Methylthioadenosine: 3521.96 | Ion intensities, Mean: Myristoylcarnitine: 1303.77 | Ion intensities, Mean: N,N-dimethyl-Safingol: 578.09 | Ion intensities, Mean: N-(1-Deoxy-1-fructosyl) serine: 4331.01 | Ion intensities, Mean: N-ACETYL-L-ASPARTICACID: 25975.80 | Ion intensities, Mean: N-ACETYLNEURAMINATE: 1670.91 | Ion intensities, Mean: N-Acetyl-Glutamic acid: 205.45 | Ion intensities, Mean: N-Acetyl-L-alanine: 1909.11 | Ion intensities, Mean: N-Acetylaspartylglutamic acid: 2955.57 | Ion intensities, Mean: N-Acetylglutamine: 519.28 | Ion intensities, Mean: N-Acetylisoputreanine: 153.75 | Ion intensities, Mean: N-Acetyllactosamine: 273.32 | Ion intensities, Mean: N-Linoleoyl GABA: 54.12 | Ion intensities, Mean: N-Methyl-Glutamate: 2772.85 | Ion intensities, Mean: N-a-Acetyl-Arginine: 270.36 | Ion intensities, Mean: NAD: 1268.92 | Ion intensities, Mean: NE,NE,NE-TRIMETHYLLYSINE: 3943.68 | Ion intensities, Mean: Niacinamide: 5120.54 | Ion intensities, Mean: Nicotinamide adenine dinucleotide (NAD): 37985.70 | Ion intensities, Mean: O-Phosphoethanolamine: 302.71 | Ion intensities, Mean: Octadecenoic acid: 169.48 | Ion intensities, Mean: Oleamide: 3677.58 | Ion intensities, Mean: Oxidized glutathione: 4537.22 | Ion intensities, Mean: PALMITATE: 1211.29 | Ion intensities, Mean: PALMITOLEIC ACID: 39.36 | Ion intensities, Mean: PANTOTHENIC ACID: 524.89 | Ion intensities, Mean: PETROSELINIC ACID: 142.54 | Ion intensities, Mean: PHENYLALANINE: 2973.73 | Ion intensities, Mean: PHENYLETHANOLAMINE: 1559.27 | Ion intensities, Mean: Phenylpropionylglycine: 431.18 | Ion intensities, Mean: Phosphocholine: 23860.56 | Ion intensities, Mean: Phosphodimethyl-ethanolamine: 269.92 | Ion intensities, Mean: Pipecolic acid: 516.02 | Ion intensities, Mean: Propionylcarnitine: 540.78 | Ion intensities, Mean: Pyridoxamine-5′-Phosphate: 484.54 | Ion intensities, Mean: RAC-GLYCEROL-L-MYRISTATE: 283.53 | Ion intensities, Mean: S-Adenosylhomocysteine: 473.94 | Ion intensities, Mean: S-Adenosylmethionine: 18868.04 | Ion intensities, Mean: SERINE: 483.60 | Ion intensities, Mean: SUCCINATE: 304.14 | Ion intensities, Mean: Spermic acid 1: 199.76 | Ion intensities, Mean: Spermidine: 7809.52 | Ion intensities, Mean: Sphinganine: 23.16 | Ion intensities, Mean: Sphinganine 1-phosphate: 1966.99 | Ion intensities, Mean: Sphingosine: 1163.81 | Ion intensities, Mean: Stearoylglycerophosphoserine: 1831.40 | Ion intensities, Mean: Succinyladenosine: 217.97 | Ion intensities, Mean: TAURINE: 6801.22 | Ion intensities, Mean: THEOPHYLLINE: 18.56 | Ion intensities, Mean: TRYPTOPHAN: 1355.41 | Ion intensities, Mean: Tetradecanedioic acid: 115.20 | Ion intensities, Mean: Tetrahydrodeoxycortisol: 2674.78 | Ion intensities, Mean: Threoninyl-Alanine: 295.96 | Ion intensities, Mean: Tyrosine: 6818.63 | Ion intensities, Mean: URIDINE: 1161.25 | Ion intensities, Mean: URIDINE 5′-DIPHOSPHOGALACTOSE: 1728.73 | Ion intensities, Mean: URIDINE-5-MONOPHOSPHATE: 3704.01 | Ion intensities, Mean: Undecanedicarboxylic acid: 219.08 | Ion intensities, Mean: Uracil: 225.61 | Ion intensities, Mean: Uridine 5′-diphosphate: 422.30 | Ion intensities, Mean: Xanthine: 155.79 | Ion intensities, Mean: cyclic GMP-AMP: 2077.75 | Ion intensities, Mean: diethyltoluamide: 5.17 | Ion intensities, Mean: docosa-hexaenoic acid: 1911.88 | Ion intensities, Mean: hydroxyhexadecanoyl carnitine: 1048.02 | Ion intensities, Mean: hydroxyvitamin D3: 21210.39 | Ion intensities, Mean: sn-glycero-3-Phosphoethanolamine: 994.53
